Measurements taken from PubChem BioAssay (NCI).
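Grown in 96-well plates, cells were treated for 48 hours with each compound at five concentrations. Insufficient inhibition: endpoint recorded as highest concentration tested. TGI: total growth inhibition.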

Experiments:
Assay in all cases: NCI-60 cell line screen, 48 h
A549 NSCLC = system: A549 NSCLC
SNB-19 CNS = system: SNB-19 CNS
RPMI-8226 leukemia = system: RPMI-8226 leukemia
NCI-H23 lung = system: NCI-H23 lung
MDA-MB-231 breast = system: MDA-MB-231 breast
IGROV1 ovarian = system: IGROV1 ovarian
CCRF-CEM leukemia = system: CCRF-CEM leukemia
DU-145 prostate = system: DU-145 prostate
SK-MEL-28 melanoma = system: SK-MEL-28 melanoma
NCI-H522 lung = system: NCI-H522 lung
UO-31 renal = system: UO-31 renal
NCI-H226 lung = system: NCI-H226 lung
BT-549 breast = system: BT-549 breast
SNB-75 CNS = system: SNB-75 CNS
ACHN renal = system: ACHN renal
NCI-H460 lung = system: NCI-H460 lung
786-0 renal = system: 786-0 renal
COLO 205 colon = system: COLO 205 colon
OVCAR-3 ovarian = system: OVCAR-3 ovarian
M14 melanoma = system: M14 melanoma
CAKI-1 renal = system: CAKI-1 renal
RXF 393 renal = system: RXF 393 renal
MOLT-4 leukemia = system: MOLT-4 leukemia
SF-268 CNS = system: SF-268 CNS
HS 578T breast = system: HS 578T breast
HCT-116 colon = system: HCT-116 colon
MALME-3M melanoma = system: MALME-3M melanoma
EKVX NSCLC = system: EKVX NSCLC
NCI/ADR-RES ovarian = system: NCI/ADR-RES ovarian
SF-295 CNS = system: SF-295 CNS
SN12C renal = system: SN12C renal
MDA-N = system: MDA-N
UACC-257 melanoma = system: UACC-257 melanoma
TK-10 renal = system: TK-10 renal
HOP-92 NSCLC = system: HOP-92 NSCLC
HCC-2998 colon = system: HCC-2998 colon
K-562 leukemia = system: K-562 leukemia
SR leukemia = system: SR leukemia
MCF7 breast = system: MCF7 breast
KM12 colon = system: KM12 colon
UACC-62 melanoma = system: UACC-62 melanoma
MDA-MB-435 = system: MDA-MB-435
U251 CNS = system: U251 CNS
LOX IMVI melanoma = system: LOX IMVI melanoma
HCT-15 colon = system: HCT-15 colon
OVCAR-4 ovarian = system: OVCAR-4 ovarian
HL-60(TB) leukemia = system: HL-60(TB) leukemia
PC-3 prostate = system: PC-3 prostate
HOP-62 NSCLC = system: HOP-62 NSCLC
HT29 colon = system: HT29 colon
SK-MEL-5 melanoma = system: SK-MEL-5 melanoma
SF-539 CNS = system: SF-539 CNS
OVCAR-8 ovarian = system: OVCAR-8 ovarian
A498 renal = system: A498 renal
SK-OV-3 ovarian = system: SK-OV-3 ovarian
OVCAR-5 ovarian = system: OVCAR-5 ovarian
T-47D breast = system: T-47D breast
SW-620 colon = system: SW-620 colon
SK-MEL-2 melanoma = system: SK-MEL-2 melanoma
DMS 273 small cell lung = system: DMS 273 small cell lung
SNB-78 CNS = system: SNB-78 CNS
LXFL 529 NSCLC = system: LXFL 529 NSCLC
M19-MEL melanoma = system: M19-MEL melanoma
DMS 114 small cell lung = system: DMS 114 small cell lung
KM20L2 colon = system: KM20L2 colon
DLD-1 colon = system: DLD-1 colon

## ClCc1nn(-c2ccccc2)c(CCl)c1CCl
A549 NSCLC
  TGI: 24.5 µM
SNB-19 CNS
  TGI: 19.9 µM
RPMI-8226 leukemia
  TGI: 7.18 µM
NCI-H23 lung
  TGI: 14.3 µM
MDA-MB-231 breast
  TGI: 12.1 µM
IGROV1 ovarian
  TGI: 18.2 µM
CCRF-CEM leukemia
  TGI: 6.02 µM
DU-145 prostate
  TGI: 16.6 µM
SK-MEL-28 melanoma
  TGI: 12.4 µM
NCI-H522 lung
  TGI: 10.2 µM
UO-31 renal
  TGI: 11.5 µM
NCI-H226 lung
  TGI: 13.9 µM
BT-549 breast
  TGI: 18.3 µM
SNB-75 CNS
  TGI: 11.4 µM
ACHN renal
  TGI: 7.62 µM
NCI-H460 lung
  TGI: 12.5 µM
786-0 renal
  TGI: 8.77 µM
COLO 205 colon
  TGI: 8.95 µM
OVCAR-3 ovarian
  TGI: 11 µM
M14 melanoma
  TGI: 10.3 µM
CAKI-1 renal
  TGI: 20.6 µM
RXF 393 renal
  TGI: 15.3 µM
MOLT-4 leukemia
  TGI: 6.76 µM
SF-268 CNS
  TGI: 17.4 µM
HS 578T breast
  TGI: 58.3 µM
HCT-116 colon
  TGI: 7.54 µM
MALME-3M melanoma
  TGI: 9.88 µM
EKVX NSCLC
  TGI: 8.97 µM
NCI/ADR-RES ovarian
  TGI: > 100 µM
SF-295 CNS
  TGI: 26.5 µM
SN12C renal
  TGI: 11.1 µM
MDA-N
  TGI: 8.88 µM
UACC-257 melanoma
  TGI: 25 µM
TK-10 renal
  TGI: 21.3 µM
HOP-92 NSCLC
  TGI: 9.85 µM
HCC-2998 colon
  TGI: 24.7 µM
K-562 leukemia
  TGI: 6.34 µM
SR leukemia
  TGI: 4.41 µM
MCF7 breast
  TGI: 16 µM
KM12 colon
  TGI: 11.9 µM
UACC-62 melanoma
  TGI: 14.4 µM
MDA-MB-435
  TGI: 6.6 µM
U251 CNS
  TGI: 6.05 µM
LOX IMVI melanoma
  TGI: 4.29 µM
HCT-15 colon
  TGI: 9.06 µM
OVCAR-4 ovarian
  TGI: 7.61 µM
HL-60(TB) leukemia
  TGI: 6.78 µM
PC-3 prostate
  TGI: 18.4 µM
HOP-62 NSCLC
  TGI: 33.8 µM
HT29 colon
  TGI: 9.9 µM
SK-MEL-5 melanoma
  TGI: 8.43 µM
SF-539 CNS
  TGI: 6.34 µM
OVCAR-8 ovarian
  TGI: 6.17 µM
A498 renal
  TGI: 24.5 µM
SK-OV-3 ovarian
  TGI: 23.3 µM
OVCAR-5 ovarian
  TGI: 15.2 µM
T-47D breast
  TGI: 16.4 µM
SW-620 colon
  TGI: 11.4 µM
SK-MEL-2 melanoma
  TGI: 15.5 µM

## CC1=CP(=O)(OC(C)C)CC(C)=C1Cl (stereo not drawn)
DMS 273 small cell lung
  TGI: > 100 µM
A549 NSCLC
  TGI: > 100 µM
SNB-19 CNS
  TGI: > 100 µM
RPMI-8226 leukemia
  TGI: > 100 µM
SNB-78 CNS
  TGI: > 100 µM
NCI-H23 lung
  TGI: > 100 µM
IGROV1 ovarian
  TGI: > 100 µM
CCRF-CEM leukemia
  TGI: > 100 µM
SK-MEL-28 melanoma
  TGI: > 100 µM
NCI-H522 lung
  TGI: > 100 µM
UO-31 renal
  TGI: > 100 µM
NCI-H226 lung
  TGI: > 100 µM
SNB-75 CNS
  TGI: > 100 µM
LXFL 529 NSCLC
  TGI: > 100 µM
ACHN renal
  TGI: > 100 µM
NCI-H460 lung
  TGI: > 100 µM
786-0 renal
  TGI: > 100 µM
COLO 205 colon
  TGI: > 100 µM
M19-MEL melanoma
  TGI: > 100 µM
OVCAR-3 ovarian
  TGI: > 100 µM
M14 melanoma
  TGI: > 100 µM
CAKI-1 renal
  TGI: > 100 µM
RXF 393 renal
  TGI: > 100 µM
MOLT-4 leukemia
  TGI: > 100 µM
SF-268 CNS
  TGI: > 100 µM
HCT-116 colon
  TGI: > 100 µM
MALME-3M melanoma
  TGI: > 100 µM
EKVX NSCLC
  TGI: > 100 µM
SF-295 CNS
  TGI: > 100 µM
SN12C renal
  TGI: > 100 µM
UACC-257 melanoma
  TGI: > 100 µM
TK-10 renal
  TGI: > 100 µM
HOP-92 NSCLC
  TGI: > 100 µM
HCC-2998 colon
  TGI: > 100 µM
DMS 114 small cell lung
  TGI: > 100 µM
K-562 leukemia
  TGI: > 100 µM
SR leukemia
  TGI: > 100 µM
KM12 colon
  TGI: > 100 µM
UACC-62 melanoma
  TGI: > 100 µM
U251 CNS
  TGI: > 100 µM
LOX IMVI melanoma
  TGI: > 100 µM
HL-60(TB) leukemia
  TGI: > 100 µM
HOP-62 NSCLC
  TGI: > 100 µM
HT29 colon
  TGI: > 100 µM
KM20L2 colon
  TGI: > 100 µM
SK-MEL-5 melanoma
  TGI: > 100 µM
SF-539 CNS
  TGI: > 100 µM
OVCAR-8 ovarian
  TGI: > 100 µM
A498 renal
  TGI: > 100 µM
SK-OV-3 ovarian
  TGI: > 100 µM
OVCAR-5 ovarian
  TGI: > 100 µM
DLD-1 colon
  TGI: > 100 µM
SW-620 colon
  TGI: > 100 µM
SK-MEL-2 melanoma
  TGI: > 100 µM
